Earlier results as cited in patent US12138347B2, “Nanoparticles and nanonetworks formed therefrom” (University of Houston System, priority 2018, dated 2024).

What was measured:
[1] = tested on: HL60 leukemia cells; conditions: p53 null cell line
[2] = tested on: K562 leukemia cells; conditions: p53 null cell line
[3] = tested on: prostate cancer cells
[4] = tested on: HT-29 colon carcinoma cells; conditions: p53 null cell line

## C[C@H]1CCC/C=C/[C@@H]2C[C@H](O)C[C@H]2[C@H](O)/C=C/C(=O)O1 [BFA, Brefeldin A]
[1]
  potency in HL60 leukemia cells: high potency
[2]
  potency in K562 leukemia cells: high potency
[3]
  effect on efficacy of docetaxel: enhances the efficacy
[4]
  potency in HT-29 colon carcinoma cells: high potency
